In BindingDB's records for doi:10.1021/jm100812a (Boehringer Ingelheim Pharma, 2010):

Experiments:
[1] = target: Activin receptor-like kinase 1, ACVRL1 (Homo sapiens) (UniProt P37023); test: Inhibition of ALK1
TGF-beta receptor type-1 [2] = target: T1, TGF-beta receptor type-1 (Homo sapiens, UniProt P36897); test: Inhibition of TGFbeta receptor
T1 sequence (P36897 whole entry): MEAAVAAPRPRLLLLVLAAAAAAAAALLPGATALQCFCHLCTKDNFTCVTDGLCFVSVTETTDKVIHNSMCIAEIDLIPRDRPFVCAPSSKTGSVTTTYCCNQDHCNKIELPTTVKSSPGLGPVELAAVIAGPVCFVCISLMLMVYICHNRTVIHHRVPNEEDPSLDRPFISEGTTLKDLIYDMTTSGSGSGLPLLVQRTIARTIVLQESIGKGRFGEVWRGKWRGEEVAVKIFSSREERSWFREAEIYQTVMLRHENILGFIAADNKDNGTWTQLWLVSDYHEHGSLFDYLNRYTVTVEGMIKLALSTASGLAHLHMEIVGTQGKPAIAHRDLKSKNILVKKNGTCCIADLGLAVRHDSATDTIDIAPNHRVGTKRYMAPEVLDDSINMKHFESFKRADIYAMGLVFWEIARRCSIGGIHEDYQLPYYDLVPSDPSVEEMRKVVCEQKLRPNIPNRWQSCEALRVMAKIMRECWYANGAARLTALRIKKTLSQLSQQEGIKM

TGF-beta receptor type-1 [3] = target: T1, TGF-beta receptor type-1; test: Inhibition of TGFbeta receptor in human HaCaT cells assessed as Smad phosphorylation by ELISA
[4] = target: Platelet-derived growth factor receptor alpha (Homo sapiens, UniProt P16234); test: Inhibition of PDGFRalpha
Sequence of Platelet-derived growth factor receptor alpha (P16234 whole entry): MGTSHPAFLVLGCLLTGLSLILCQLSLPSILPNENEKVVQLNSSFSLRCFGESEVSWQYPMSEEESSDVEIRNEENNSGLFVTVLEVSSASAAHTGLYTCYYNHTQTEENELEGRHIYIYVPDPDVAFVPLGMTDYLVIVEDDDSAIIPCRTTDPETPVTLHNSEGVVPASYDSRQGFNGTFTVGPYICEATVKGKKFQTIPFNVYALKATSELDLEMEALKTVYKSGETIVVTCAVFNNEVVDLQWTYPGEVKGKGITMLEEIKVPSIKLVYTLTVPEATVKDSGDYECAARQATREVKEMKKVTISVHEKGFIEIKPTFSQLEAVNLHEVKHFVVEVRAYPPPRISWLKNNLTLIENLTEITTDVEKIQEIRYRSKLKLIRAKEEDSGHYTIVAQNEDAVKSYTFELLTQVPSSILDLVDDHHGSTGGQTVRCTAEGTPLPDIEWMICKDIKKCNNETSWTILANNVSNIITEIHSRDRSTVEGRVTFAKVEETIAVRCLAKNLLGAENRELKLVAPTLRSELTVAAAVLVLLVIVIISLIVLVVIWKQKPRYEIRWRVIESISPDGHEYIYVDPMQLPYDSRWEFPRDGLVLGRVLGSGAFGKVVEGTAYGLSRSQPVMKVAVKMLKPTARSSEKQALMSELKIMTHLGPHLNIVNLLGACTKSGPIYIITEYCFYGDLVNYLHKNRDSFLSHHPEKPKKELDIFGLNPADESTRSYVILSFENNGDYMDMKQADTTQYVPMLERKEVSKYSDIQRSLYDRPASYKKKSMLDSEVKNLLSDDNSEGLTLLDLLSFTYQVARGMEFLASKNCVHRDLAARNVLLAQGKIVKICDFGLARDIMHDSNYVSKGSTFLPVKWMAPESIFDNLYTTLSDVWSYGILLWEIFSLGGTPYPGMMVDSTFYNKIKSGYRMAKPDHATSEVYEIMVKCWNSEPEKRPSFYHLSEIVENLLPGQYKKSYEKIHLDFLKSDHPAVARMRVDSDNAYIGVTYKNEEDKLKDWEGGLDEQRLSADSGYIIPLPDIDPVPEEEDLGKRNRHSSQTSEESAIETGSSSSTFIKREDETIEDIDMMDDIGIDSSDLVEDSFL

Sequence of Activin receptor-like kinase 1, ACVRL1 (Homo sapiens) (P37023 whole entry, looked up): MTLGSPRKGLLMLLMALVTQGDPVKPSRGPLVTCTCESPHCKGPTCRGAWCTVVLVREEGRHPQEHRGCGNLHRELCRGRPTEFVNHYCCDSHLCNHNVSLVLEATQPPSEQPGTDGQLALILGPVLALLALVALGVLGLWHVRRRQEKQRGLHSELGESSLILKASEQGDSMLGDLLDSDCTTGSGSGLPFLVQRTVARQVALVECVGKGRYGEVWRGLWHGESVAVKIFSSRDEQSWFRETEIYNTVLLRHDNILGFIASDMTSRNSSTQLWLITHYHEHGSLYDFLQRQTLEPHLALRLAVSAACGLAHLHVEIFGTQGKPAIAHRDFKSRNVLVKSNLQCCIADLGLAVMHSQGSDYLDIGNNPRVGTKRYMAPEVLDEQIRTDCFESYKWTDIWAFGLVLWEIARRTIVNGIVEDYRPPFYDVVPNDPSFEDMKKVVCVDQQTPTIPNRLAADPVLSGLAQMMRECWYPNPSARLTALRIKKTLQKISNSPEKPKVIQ

Compound	IC50 [1] [µM]	IC50 (TGF-beta receptor type-1 [2]) [µM]	EC50 (TGF-beta receptor type-1 [3]) [µM]	IC50 [4] [µM]
CCN(C)C(=O)c1ccc2c(c1)NC(=O)/C2=C(\Nc1ccc(CN2CCCCC2)cc1)c1ccccc1	4	–	–	–
CCN(C)C(=O)c1ccc2c(c1)NC(=O)C2C(=NC1CCCCC1)c1ccccc1 (configuration not stated) [(Z)-3-((cyclohexylamino)(phenyl)methylene)-N-ethyl-N-methyl-2-oxoindoline-6-carboxamide]	–	> 50	> 10	> 5
CCN(C)C(=O)c1ccc2c(c1)NC(=O)C2C(=NC1CCN(C)CC1)c1ccccc1 (configuration not stated) [(Z)-N-ethyl-N-methyl-3-((1-methylpiperidin-4-ylamino)(phenyl)methylene)-2-oxoindoline-6-carboxamide]	–	> 50	> 10	> 5
